Measurements taken from US11173151B2, “Substituted triazole derivatives and uses thereof” (BAYER AKTIENGESELLSCHAFT, priority 2017, dated 2021).

Assays:
human V1a receptor = target: T1, human V1a receptor (Homo sapiens, UniProt P37288); test: Cellular in vitro assay for determining vasopressin receptor activity, V1a receptor cell line (CHO, aequorin luminescence); assay type: cell-based; details: for IC50: CHO cell line transfected with human V1a receptor, [Arg]-vasopressin at EC50 concentration, read-out: IC50 hV1a; for ratio IC50 hV2/hV1a: selectivity ratio IC50 hV2 / IC50 hV1a
T1 construct: expressed in transfected cells; host or cells: CHO K1 (ATCC), also stably transfected with a modified aequorin
In short: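 Luminescence from reconstituted aequorin, reporting intracellular calcium release, was measured immediately after adding [Arg]-vasopressin at EC50 concentration to CHO K1 cells pretreated 10 minutes with graded compound concentrations. Inhibition gave IC50 values.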

human V2 receptor = target: T2, human V2 receptor (Homo sapiens, UniProt P30518); test: Cellular in vitro assay for determining vasopressin receptor activity, V2 receptor cell line (CHO, CRE-luciferase); assay type: cell-based; details: CHO cell line transfected with human V2 receptor; [Arg8]-vasopressin at EC50 concentration, 3 hours; read-out: IC50 hV2
T2 construct: expressed in transfected cells; host or cells: CHO K1 (ATCC) expressing firefly luciferase under a CRE-responsive promoter
T2 sequence (P30518 whole entry): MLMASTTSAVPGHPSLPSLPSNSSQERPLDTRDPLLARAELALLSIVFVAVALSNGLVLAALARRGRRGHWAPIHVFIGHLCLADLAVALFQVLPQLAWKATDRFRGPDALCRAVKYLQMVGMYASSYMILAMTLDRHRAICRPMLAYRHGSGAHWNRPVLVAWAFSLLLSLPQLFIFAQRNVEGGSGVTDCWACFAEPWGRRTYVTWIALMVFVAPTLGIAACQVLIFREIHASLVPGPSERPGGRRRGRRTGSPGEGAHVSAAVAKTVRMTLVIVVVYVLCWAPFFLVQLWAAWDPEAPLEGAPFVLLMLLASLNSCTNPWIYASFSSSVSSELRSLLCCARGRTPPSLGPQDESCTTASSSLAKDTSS

T1 sequence (P37288 whole entry): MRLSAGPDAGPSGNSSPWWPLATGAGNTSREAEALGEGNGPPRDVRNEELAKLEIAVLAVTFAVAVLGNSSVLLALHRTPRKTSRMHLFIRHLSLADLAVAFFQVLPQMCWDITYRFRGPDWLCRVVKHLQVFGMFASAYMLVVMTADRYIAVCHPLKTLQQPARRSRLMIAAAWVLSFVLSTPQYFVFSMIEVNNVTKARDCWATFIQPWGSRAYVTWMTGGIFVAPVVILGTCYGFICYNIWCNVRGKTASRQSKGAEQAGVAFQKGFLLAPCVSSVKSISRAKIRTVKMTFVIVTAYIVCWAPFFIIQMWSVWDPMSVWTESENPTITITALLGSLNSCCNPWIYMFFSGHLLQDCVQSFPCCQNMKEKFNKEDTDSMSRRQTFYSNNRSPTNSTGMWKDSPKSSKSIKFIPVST

Structure (SMILES)	IC50 (human V1a receptor)	ratio IC50 hV2/hV1a (human V1a receptor)	IC50 (human V2 receptor)
O=C1CCC(CNc2ncccc2-n2cnc(Cn3nc(-c4ccc(Cl)cc4)n(C[C@H](O)C(F)(F)F)c3=O)n2)N1 (stereo partly drawn) [Example 70, 5-(4-Chlorophenyl)-2-{[1-(2-{[(5-oxopyrrolidin-2-yl)methyl]amino}pyridin-3-yl)-1H-1,2,4-triazol-3-yl]methyl}-4-[(2S)-3,3,3-trifluoro-2-hydroxypropyl]-2,4-dihydro-3H-1,2,4-triazol-3-one]	150 nM	4.6	690 nM
O=c1n(Cc2ncn(-c3cccnc3NCC(F)(F)F)n2)nc(-c2ccc(Cl)cc2)n1C[C@H](O)C(F)(F)F [Example 71, 5-(4-Chlorophenyl)-2-[(1-{2-[(2,2,2-trifluoroethyl)amino]pyridin-3-yl}-1H-1,2,4-triazol-3-yl)methyl]-4-[(2S)-3,3,3-trifluoro-2-hydroxypropyl]-2,4-dihydro-3H-1,2,4-triazol-3-one]	150 nM	1.6	240 nM
O=c1n(Cc2ncn(-c3cccnc3NCC3CS(=O)(=O)C3)n2)nc(-c2ccc(Cl)cc2)n1C[C@H](O)C(F)(F)F [Example 72, 5-(4-Chlorophenyl)-2-{[1-(2-{[(1,1-dioxidothietan-3-yl)methyl]amino}pyridin-3-yl)-1H-1,2,4-triazol-3-yl]methyl}-4-[(2S)-3,3,3-trifluoro-2-hydroxypropyl]-2,4-dihydro-3H-1,2,4-triazol-3-one]	2050 nM	15.6	32000 nM
O=C(CC(F)(F)F)Nc1ncccc1-n1cnc(Cn2nc(-c3ccc(Cl)cc3)n(C[C@H](O)C(F)(F)F)c2=O)n1 [Example 74, N-{3-[3-({3-(4-Chlorophenyl)-5-oxo-4-[(2S)-3,3,3-trifluoro-2-hydroxypropyl]-4,5-dihydro-1H-1,2,4-triazol-1-yl}methyl)-1H-1,2,4-triazol-1-yl]pyridin-2-yl}-3,3,3-trifluoropropanamide]	5.6 nM	154.5	865 nM
O=C(Nc1ncccc1-n1cnc(Cn2nc(-c3ccc(Cl)cc3)n(C[C@H](O)C(F)(F)F)c2=O)n1)C1CC(F)(F)C1 [Example 80, N-{3-[3-({3-(4-Chlorophenyl)-5-oxo-4-[(2S)-3,3,3-trifluoro-2-hydroxypropyl]-4,5-dihydro-1H-1,2,4-triazol-1-yl}methyl)-1H-1,2,4-triazol-1-yl]pyridin-2-yl}-3,3-difluorocyclobutanecarboxamide]	6.65 nM	270.7	1800 nM
O=C(Nc1ncccc1-n1cnc(Cn2nc(-c3ccc(Cl)cc3)n(C[C@H](O)C(F)(F)F)c2=O)n1)C1(C(F)(F)F)CC1 [Example 81, N-{3-[3-({3-(4-Chlorophenyl)-5-oxo-4-[(2S)-3,3,3-trifluoro-2-hydroxypropyl]-4,5-dihydro-1H-1,2,4-triazol-1-yl}methyl)-1H-1,2,4-triazol-1-yl]pyridin-2-yl}-1-(trifluoromethyl)cyclopropanecarboxamide]	2.05 nM	658.5	1350 nM
O=C(Nc1ncccc1-n1cnc(Cn2nc(-c3ccc(Cl)cc3)n(C[C@H](O)C(F)(F)F)c2=O)n1)C1CC1F (stereo partly drawn) [Example 85, N-{3-[3-({3-(4-Chlorophenyl)-5-oxo-4-[(2S)-3,3,3-trifluoro-2-hydrxypropyl]-4,5-dihydro-1H-1,2,4-triazol-1-yl}methyl)-1H-1,2,4-triazol-1-yl]pyridin-2-yl}-2-fluorocyclopropanecarboxamide]	7.35 nM	673.5	4950 nM
O=C(CC1CC1)Nc1ncccc1-n1cnc(Cn2nc(-c3ccc(Cl)cc3)n(C[C@H](O)C(F)(F)F)c2=O)n1 [Example 87, N-{3-[3-({3-(4-Chlorophenyl)-5-oxo-4-[(2S)-3,3,3-trifluoro-2-hydroxypropyl]-4,5-dihydro-1H-1,2,4-triazol-1-yl}methyl)-1H-1,2,4-triazol-1-yl]pyridin-2-yl}-2-cyclopropylacetamide]	4.8 nM	228.1	1100 nM
O=C(Cn1cncn1)Nc1ncccc1-n1cnc(Cn2nc(-c3ccc(Cl)cc3)n(C[C@H](O)C(F)(F)F)c2=O)n1 [Example 88, N-{3-[3-({3-(4-Chlorophenyl)-5-oxo-4-[(2S)-3,3,3-trifluoro-2-hydroxypropyl]-4,5-dihydro-1H-1,2,4-triazol-1-yl}methyl)-1H-1,2,4-triazol-1-yl]pyridin-2-yl}-2-(1H-1,2,4-triazol-1-yl)acetamide]	41 nM	28.7	1170 nM
O=C(Cc1cccnc1)Nc1ncccc1-n1cnc(Cn2nc(-c3ccc(Cl)cc3)n(C[C@H](O)C(F)(F)F)c2=O)n1 [Example 89]	36 nM	51.4	1850 nM
CN1CC(C(=O)Nc2ncccc2-n2cnc(Cn3nc(-c4ccc(Cl)cc4)n(C[C@H](O)C(F)(F)F)c3=O)n2)CC1=O (stereo partly drawn) [Example 90]	90 nM	17.2	1550 nM
O=C(CN1CCCC1=O)Nc1ncccc1-n1cnc(Cn2nc(-c3ccc(Cl)cc3)n(C[C@H](O)C(F)(F)F)c2=O)n1 [Example 91]	195 nM	6.4	1250 nM
O=C(Cc1ccccc1)Nc1ncccc1-n1cnc(Cn2nc(-c3ccc(Cl)cc3)n(C[C@H](O)C(F)(F)F)c2=O)n1 [Example 97]	135 nM	15.2	2050 nM
CC1(C(=O)Nc2ncccc2-n2cnc(Cn3nc(-c4ccc(Cl)cc4)n(C[C@H](O)C(F)(F)F)c3=O)n2)CCCO1 (stereo partly drawn) [Example 98]	125 nM	7.6	945 nM
CC1CC(=O)NC1C(=O)Nc1ncccc1-n1cnc(Cn2nc(-c3ccc(Cl)cc3)n(C[C@H](O)C(F)(F)F)c2=O)n1 (stereo partly drawn) [Example 99]	40 nM	100.0	4000 nM
O=C(CN1CCCCC1)Nc1ncccc1-n1cnc(Cn2nc(-c3ccc(Cl)cc3)n(C[C@H](O)C(F)(F)F)c2=O)n1 [Example 103]	155 nM	15.5	2400 nM
O=C(CC1CCCCC1)Nc1ncccc1-n1cnc(Cn2nc(-c3ccc(Cl)cc3)n(C[C@H](O)C(F)(F)F)c2=O)n1 [Example 105]	130 nM	8.5	1100 nM

Further lines, results first:

IC50 (human V1a receptor)	ratio IC50 hV2/hV1a (human V1a receptor)	IC50 (human V2 receptor)	Structure (SMILES)
53 nM	13.4	710 nM	CC(=O)Nc1ncccc1-n1cnc(Cn2nc(-c3ccc(Cl)cc3)n(C[C@H](O)C(F)(F)F)c2=O)n1 [Example 73, N-{3-[3-({3-(4-Chlorophenyl)-5-oxo-4-[(2S)-3,3,3-trifluoro-2-hydroxypropyl]-4,5-dihydro-1H-1,2,4-triazol-1-yl}methyl)-1H-1,2,4-triazol-1-yl]pyridin-2-yl}acetamide]
5.35 nM	106.5	570 nM	O=C(Nc1ncccc1-n1cnc(Cn2nc(-c3ccc(Cl)cc3)n(C[C@H](O)C(F)(F)F)c2=O)n1)C1CC1 [Example 83, N-{3-[3-({3-(4-Chlorophenyl)-5-oxo-4-[(2S)-3,3,3-trifluoro-2-hydroxypropyl]-4,5-dihydro-1H-1,2,4-triazol-1-yl}methyl)-1H-1,2,4-triazol-1-yl]pyridin-2-yl}cyclopropanecarboxamide]
240 nM	7.3	1750 nM	Cc1cnn(CC(=O)Nc2ncccc2-n2cnc(Cn3nc(-c4ccc(Cl)cc4)n(C[C@H](O)C(F)(F)F)c3=O)n2)c1 [Example 92]
7.65 nM	66.0	505 nM	O=C(Nc1ncccc1-n1cnc(Cn2nc(-c3ccc(Cl)cc3)n(C[C@H](O)C(F)(F)F)c2=O)n1)c1cncc(F)c1 [Example 93]
16 nM	140.6	2250 nM	Cc1nccn1CC(=O)Nc1ncccc1-n1cnc(Cn2nc(-c3ccc(Cl)cc3)n(C[C@H](O)C(F)(F)F)c2=O)n1 [Example 94]
92 nM	23.4	2150 nM	O=C(Nc1ncccc1-n1cnc(Cn2nc(-c3ccc(Cl)cc3)n(C[C@H](O)C(F)(F)F)c2=O)n1)c1ccccc1 [Example 95]
2.1 nM	266.7	560 nM	CNCC(=O)Nc1ncccc1-n1cnc(Cn2nc(-c3ccc(Cl)cc3)n(C[C@H](O)C(F)(F)F)c2=O)n1 [Example 96]
26.5 nM	40.2	1060 nM	O=C(Nc1ncccc1-n1cnc(Cn2nc(-c3ccc(Cl)cc3)n(C[C@H](O)C(F)(F)F)c2=O)n1)c1csnn1 [Example 100]
110 nM	17.7	1950 nM	O=C(Nc1ncccc1-n1cnc(Cn2nc(-c3ccc(Cl)cc3)n(C[C@H](O)C(F)(F)F)c2=O)n1)c1ccccc1O [Example 101]
80 nM	14.4	1150 nM	Cc1cc(C(=O)Nc2ncccc2-n2cnc(Cn3nc(-c4ccc(Cl)cc4)n(C[C@H](O)C(F)(F)F)c3=O)n2)on1 [Example 102]
8.25 nM	193.9	1600 nM	O=C(Nc1ncccc1-n1cnc(Cn2nc(-c3ccc(Cl)cc3)n(C[C@H](O)C(F)(F)F)c2=O)n1)c1cnccn1 [Example 104]
2.35 nM	510.6	1200 nM	Cn1nccc1C(=O)Nc1ncccc1-n1cnc(Cn2nc(-c3ccc(Cl)cc3)n(C[C@H](O)C(F)(F)F)c2=O)n1 [Example 106]
5.65 nM	125.7	710 nM	Cc1cccc(C(=O)Nc2ncccc2-n2cnc(Cn3nc(-c4ccc(Cl)cc4)n(C[C@H](O)C(F)(F)F)c3=O)n2)n1 [Example 107]
